In patent US7517857B2, “Immune-modulating peptide” (POSCO, priority 2002, dated 2009):

Assays:
[1] = system: CT26, colon carcinoma; assay: Tumor growth in CT26-injected Balb/c mice; type: in vivo; settings: 100 μg/mouse i.p.
Description: CT26, EL4 were maintained at 37° C. in a humidified 5% CO2 atmosphere in RPMA1640 medium supplemented with 20% (vol/vol) heat-inactivated fetal bovine serum. For animal experiments, the cells were passaged two to five times after re-growth from frozen stocks. Log phase CT26 cells were detached from tissue culture flasks with 0.25% trypsin and 0.03% EDTA. CT26 and EL4 were washed and resuspended in PBS immediately before injection.
In order to assess the antitumor effect of immuno-modulating peptide, Trp-Arg-Tyr-Met-Val-D-Met-CONH2, (WRYMVm; (SEQ ID NO: 4)), CT26, colon carcinoma was tested in Balb/c mice model. Tumor mass was measured in size every two days after 6 days from tumor cell inoculation.
To find the effective tumor-suppressing dose of WRYMVm, 0.1 μg/mouse, 0.25 μg/mouse, and 1 μg/mouse of WRYMVm were administered to CT26/Balb/c model. […] A similar phenomenon is easily found in chemotactic migration of leukocytes. In view of the fact that FPRL1, which is a target receptor for WRYMVm, is related to the chemotactic migration event, it is concluded that WRYMVm-induced antitumor effect might be derived from leukocyte infiltration event. Therefore, it is quite necessary to reveal the direct relationship between the WRYMVm-induced antitumor effect and the leukocyte infiltration event.

[2] = system: tumor; settings: survival rate, FIG. 12B
[3] = biological target: T1, FPR (Homo sapiens, UniProt P21462); assay: Exocytosis: β-hexosaminidase secretion in FPR-expressing RBL-2H3 cells; type: cell-based; settings: FPR cells; 10 μM BAPTA/AM prior to 1 μM WKYMVm
T1 construct: expressed in transfected cells; host or cells: RBL-2H3 (rat basophilic leukemia) cells, G418-selected
T1 sequence (P21462 1-350): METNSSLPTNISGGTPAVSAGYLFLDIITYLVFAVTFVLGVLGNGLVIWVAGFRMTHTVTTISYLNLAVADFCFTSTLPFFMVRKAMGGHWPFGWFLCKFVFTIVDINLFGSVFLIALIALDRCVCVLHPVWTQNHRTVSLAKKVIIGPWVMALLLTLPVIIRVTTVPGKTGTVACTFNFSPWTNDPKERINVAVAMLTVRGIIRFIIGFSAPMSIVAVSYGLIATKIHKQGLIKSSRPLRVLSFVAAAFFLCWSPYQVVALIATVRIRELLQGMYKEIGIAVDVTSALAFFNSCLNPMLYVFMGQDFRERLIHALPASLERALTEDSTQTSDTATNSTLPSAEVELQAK
Description: (§1) Granule secretion is one of the most important function of mast cells (20). The effect of WKYMVm on granule secretion was checked by measuring β-hexosaminidase secretion as described above (18). Briefly, RBL-2H3 cells (2×10^5/well) expressing FPR or FPRL1 were cultured overnight in a 24-well tissue culture plate. The cells were washed twice with Tyrode's buffer (137 mM NaCl, 12 mM NaHCO3, 5.6 mM glucose, 2.7 mM KCl, 1 mM CaCl2, 0.5 mM MgCl2, 0.4 mM NaH2PO4, 0.1g/100 ml BSA, and 25 mM HEPES, pH 7.4) and stimulated with each peptide. Various concentrations of WKYMVm were treated in FPR- or FPRL1-expressing RBL-2H3 cells (FIG. 5A). 1 μM of WKYMVm was used to stimulate two cell lines in the absence or presence of 10 μM BAPTA/AM (FIG. 5B). The reaction was terminated 20 min after stimulation by placing the plate on ice. Secretion of β-hexosaminidase into the medium was determined by incubating 50 μl of supernatant or cell lysate with 25 μl of 5 mM p-nitrophenyl-N-acetyl-β-D-glucosamide in 0.1 M sodium citrate buffer (pH 3.8) at 37° C. for 2 hr. At the end of the incubation, 50 μl of 0.4 M Na2CO3 were added. Absorbance was monitored at 405 nm. Data are means ±S.E. of a single representative of three experiments performed in triplicate. Values (means ±S.E.) were expressed as a percent of total β-hexosaminidase present in the cells.
From the new finding that cytosolic calcium release was induced by WKYMVm and many of the substituted peptides of WKYMVm but not by some of them (WKGMVm (SEQ ID NO: 1), WKRMVm (SEQ ID NO: 11), D-Met^6 substituted peptides), the effect of the peptides on granule secretion in RBL cells was checked. 10 μM of each peptide was treated in FPR- (FIG. 6A) or FPRL1-expressing RBL-2H3 cells (FIG. 6B). The peptide-induced secretion of β-hexosaminidase was determined as above. Data are means ±S.E. of a single representative of three experiments performed in triplicate.

[4] = biological target: T1, FPR; assay: ERK phosphorylation in FPR-expressing RBL-2H3 cells (immunoblot); type: cell-based; settings: pretreatment prior to 1 μM WKYMVm, PTX 100 ng/ml, LY294002 50 μM, GFX 5 μM, BAPTA/AM 10 μM, PD98059 50 μM
Description: (§2) Cultured RBL-2H3 cells were aliquoted into 2×10^6 cells and stimulated with the indicated concentrations of WKYMVm and the peptides of the present invention for the indicated lengths of time. FPR- or FPRL1-expressing RBL-2H3 cells were stimulated with 1 μM WKYMVm for various periods of time (FIG. 3A). Two cells were preincubated with a vehicle or 100 ng/ml of PTX (24 hr), 50 μM of LY294002 (15 min), 5 μM of GFX (15 min), 10 μM BAPTA/AM (60 min), or 50 μM PD98059 (60 min) prior to 1 μM of WKYMVm treatment (FIG. 3B). FPR- or FPRL1-expressing RBL2H3 cells were stimulated with 10 μM of the peptides of the present invention for 2 min or 5 min, respectively (FIG. 3C).
(§3) After stimulation, the cells were washed with serum-free RPMI and lysed in a lysis buffer (20 mM Hepes, pH 7.2, 10% glycerol, 150 mM NaCl, 1% Triton X-100, 50 mM NaF, 1 mM Na3VO4, 10 μg/ml leupeptin, 10 μg/ml aprotinin, and 1 mM phenylmethylsulfonyl fluoride). The detergent-insoluble materials were pelleted by centrifugation (12,000×g, 15 min, at 4° C.), and the soluble supernatant fraction was removed and stored at −80° C. or used immediately. Protein concentrations in the lysates were determined using the Bradford protein assay reagent.
(§4) Each sample ([…] of protein) was subjected to 10% SDS-PAGE and phosphorylated ERK was determined by an immunoblot analysis with an anti-phospho-ERK antibody. Protein samples were prepared for electrophoresis by addition of a concentrated sample buffer. The portions in the samples were then separated by an 10% SDS-polyacrylamide gel using the buffer system described by Laemmli (17).
(§5) Following the electrophoresis, a western blot analysis with an anti-ERK2 antibody was performed to confirm that the same amounts of samples were used for the experiments. The proteins were blotted onto nitrocellulose membranes. The nitrocellulose membranes were then blocked by incubation with TBS (Tris-buffered saline, 0.05% Tween-20) containing 5% non-fat dry milk. Subsequently, the membranes were incubated with anti-phospho-ERK antibody, anti-phospho-Akt antibody or anti-Akt antibody washed with TBS. For a PKC translocation assay, an antibody for PKC isozyme-specific was incubated. Antigen-antibody complexes were visualized after incubating the membrane with a 1:5000 diluted goat anti-rabbit IgG or goat anti-mouse IgG antibody coupled to horseradish peroxidase and using the enhanced chemiluminescence detection system.

[5] = biological target: T2, FPRL1 (Homo sapiens, UniProt P25090); assay: Exocytosis: β-hexosaminidase secretion in FPRL1-expressing RBL-2H3 cells; type: cell-based; settings: FPRL1 cells; 10 μM BAPTA/AM prior to 1 μM WKYMVm
T2 construct: expressed in transfected cells; host or cells: RBL-2H3 (rat basophilic leukemia) cells, G418-selected
T2 sequence (P25090 1-351): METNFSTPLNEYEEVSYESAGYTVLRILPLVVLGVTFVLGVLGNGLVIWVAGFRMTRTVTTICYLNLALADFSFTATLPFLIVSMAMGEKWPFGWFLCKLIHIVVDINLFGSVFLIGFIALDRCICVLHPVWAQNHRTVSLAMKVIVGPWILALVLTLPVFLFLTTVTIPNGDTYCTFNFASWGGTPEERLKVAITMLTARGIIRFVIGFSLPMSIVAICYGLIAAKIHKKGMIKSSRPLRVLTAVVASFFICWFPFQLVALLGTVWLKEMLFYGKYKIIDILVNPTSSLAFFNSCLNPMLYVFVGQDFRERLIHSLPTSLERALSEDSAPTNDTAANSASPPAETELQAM
Description: as §1
10 μM of each peptide was treated in FPR- (FIG. 6A) or FPRL1-expressing RBL-2H3 cells (FIG. 6B). The peptide-induced secretion of β-hexosaminidase was determined as above. Data are means ±S.E. of a single representative of three experiments performed in triplicate.

[6] = biological target: T2, FPRL1; assay: ERK phosphorylation in FPRL1-expressing RBL-2H3 cells (immunoblot); type: cell-based; settings: pretreatment prior to 1 μM WKYMVm, PTX 100 ng/ml, LY294002 50 μM, GFX 5 μM, BAPTA/AM 10 μM, PD98059 50 μM
Description: as §2, §3, §4, §5

[7] = biological target: T1, FPR; assay: Chemotaxis of FPR-expressing RBL-2H3 cells (modified Boyden chamber); type: cell-based; settings: FPR cells; 50 μM LY294002 (15 min), 50 μM PD98059 (60 min); 1 μM WKYMVm
Description: (§6) Chemotaxis assays were performed using multiwell chambers (modified Boyden chamber assay) (Neuroprobe Inc., Gaithersburg, Md.) (18). Briefly, polycarbonate filters (8 μm pore size) were precoated with 50 μg/ml of rat type I collagen (Collaborative Biomedicals) in a HEPES-buffered RPMI 1640 medium. A dry coated filter was placed on a 96-well chamber containing different concentrations of peptides. RBL-2H3 cells expressing FPR or FPRL1 were suspended in RPMI at a concentration of 1×10^6 cells/ml of serum-free RPMI, and 25 μl of the suspension were placed onto the upper well of the 96-well chemotaxis chamber. After incubation for 4 hours at 37° C., non-migrated cells were removed by scraping them out, and cells that migrated across the filter were dehydrated, fixed, and stained with hematoxylin (Sigma, St. Louis, Mo.). The stained cells in five randomly chosen high power fields (HPF) (400×) in that well were then counted. […] The numbers of migrated cells were determined by counting them in a high power field (400×). The Data are presented as means ±SE of three independent experiments each performed in duplicate. The effect of the peptides of the present invention on cellular chemotaxis in FPR- or FPRL1-expressing RBL-2H3 cells was measured. Various concentrations of each peptide were used for the chemotaxis assay with FPR- or FPRL1-expressing RBL-2H3 cells. The numbers of migrated cells were determined by counting them in a high power field (400×). The Data are presented as means ±SE of two independent experiments each performed in duplicates.

[8] = biological target: T2, FPRL1; assay: Chemotaxis of FPRL1-expressing RBL-2H3 cells (modified Boyden chamber); type: cell-based; settings: FPRL1 cells; 50 μM LY294002 (15 min), 50 μM PD98059 (60 min); 1 μM WKYMVm
Description: as §6

Compound | effect on tumor growth [1] | survival [2] | effect on WKYMVm-induced granule secretion [3] | effect of inhibitor pretreatment on WKYMVm-induced ERKs activation [4] | effect on WKYMVm-induced granule secretion [5] | effect of inhibitor pretreatment on WKYMVm-induced ERKs activation [6] | effect of inhibitor pretreatment on WKYMVm-induced cellular chemotaxis [7] | effect of inhibitor pretreatment on WKYMVm-induced cellular chemotaxis [8]
5′-TCGTCGTTTTGTCGTTTTGTCGTT-3′ [CpG ODN, reference compound] | didn't show any effect on tumor growth | failed to prevent death | – | – | – | – | – | –
CC(=O)OCOC(=O)CN(CC(=O)OCOC(C)=O)c1ccccc1OCCOc1ccccc1N(CC(=O)OCOC(C)=O)CC(=O)OCOC(C)=O [BAPTA/AM] | – | – | almost completely inhibited WKYMVm-induced granule secretion | could not effect WKYMVm-induced ERK activation | almost completely inhibited WKYMVm-induced granule secretion | could not effect WKYMVm-induced ERK activation | – | –
CN(C)CCCn1cc(C2=C(c3c[nH]c4ccccc34)C(=O)NC2=O)c2ccccc21 [GF109203X] | – | – | – | could not effect WKYMVm-induced ERK activation | – | could not effect WKYMVm-induced ERK activation | – | –
COc1cccc(-c2cc(=O)c3ccccc3o2)c1N [PD98059, reference compound] | – | – | – | sensitive | – | sensitive | sensitive | sensitive
Cn1cc(C2=C(c3cn(CCCSC(=N)N)c4ccccc34)C(=O)NC2=O)c2ccccc21 [Ro-31-8220] | – | – | – | could not effect WKYMVm-induced ERK activation | – | could not effect WKYMVm-induced ERK activation | – | –
